Measurements as given in ChEMBL document CHEMBL4602687, “Dual Binding to Orthosteric and Allosteric Sites Enhances the Anticancer Activity of a TRAP1-Targeting Drug” (J Med Chem, 2020).
Active and inactive are the calls of the source. The rule behind the calls is not given here.

How the values were obtained:
[1] = tested on: NCI-H460; assay: Cytotoxicity against human NCI-H460 cells assessed as reduction in cell viability up to 3 uM measured after 24 hrs by MTT assay; format: functional, cell-based
[2] = tested on: PC-3; assay: Cytotoxicity against human PC3 cells assessed as reduction in cell viability up to 3 uM measured after 24 hrs by MTT assay; format: functional, cell-based
[3] = tested on: LN-229; assay: Cytotoxicity against human LN229 cells assessed as reduction in cell viability up to 3 uM measured after 24 hrs by MTT assay; format: functional, cell-based
[4] = biological target: T1, Heat shock protein 75 kDa, mitochondrial (Homo sapiens) (UniProt Q12931); assay: Inhibition of recombinant wild-type human TRAP1 ATPase activity expressed in Escherichia coli BL21 (DE3) preincubated for 0.5 hrs followed by ATP addition and measured after 3 hrs by PiColorLock Gold reagent based colorimetric assay
T1 sequence (whole entry): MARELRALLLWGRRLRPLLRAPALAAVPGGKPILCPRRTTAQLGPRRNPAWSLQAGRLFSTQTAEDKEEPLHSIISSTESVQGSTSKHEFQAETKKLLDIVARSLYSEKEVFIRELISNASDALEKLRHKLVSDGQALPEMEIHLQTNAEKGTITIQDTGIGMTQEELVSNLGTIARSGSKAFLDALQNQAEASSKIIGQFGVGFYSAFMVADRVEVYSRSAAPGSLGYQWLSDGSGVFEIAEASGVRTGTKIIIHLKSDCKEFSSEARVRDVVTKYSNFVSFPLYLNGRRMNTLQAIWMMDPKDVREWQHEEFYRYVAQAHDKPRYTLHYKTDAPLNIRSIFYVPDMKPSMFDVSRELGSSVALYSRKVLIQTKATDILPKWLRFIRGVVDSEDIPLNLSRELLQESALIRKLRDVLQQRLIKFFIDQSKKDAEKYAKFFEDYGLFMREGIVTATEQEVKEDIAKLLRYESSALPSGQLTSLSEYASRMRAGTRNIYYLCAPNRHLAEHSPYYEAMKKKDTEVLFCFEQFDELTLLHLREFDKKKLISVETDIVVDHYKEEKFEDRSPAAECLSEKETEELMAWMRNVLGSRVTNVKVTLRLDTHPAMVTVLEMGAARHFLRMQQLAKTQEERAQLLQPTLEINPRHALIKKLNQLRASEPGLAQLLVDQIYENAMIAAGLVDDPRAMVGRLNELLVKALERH

[5] = tested on: HeLa; assay: Cytotoxicity against human HeLa cells assessed as reduction in cell viability up to 3 uM measured after 24 hrs by MTT assay; format: functional, cell-based
[6] = biological target: T1, Heat shock protein 75 kDa, mitochondrial (Homo sapiens); assay: Binding affinity to recombinant wild-type human TRAP1 ATP site expressed in Escherichia coli BL21 (DE3) assessed as induction of conformational change by measuring closed state population of TRAP1 at 10 uM preincubated for 30 mins followed by ATP addition and measured after 30 mins by TEM analysis (reference value: 52.1 +/- 0.6 %)
[7] = biological target: T1, Heat shock protein 75 kDa, mitochondrial (Homo sapiens); assay: Inhibition of recombinant wild-type human TRAP1 chaperone activity expressed in Escherichia coli BL21 (DE3) at 5 uM preincubated for 30 mins followed by denatured luciferase and ATP addition by luciferase refolding assay
[8] = biological target: T1, Heat shock protein 75 kDa, mitochondrial (Homo sapiens); assay: Binding affinity to recombinant wild-type human TRAP1 ATP site expressed in Escherichia coli BL21 (DE3) assessed as induction of conformational change by measuring closed state population of TRAP1 at 10 uM measured after 30 mins in absence of ATP by TEM analysis (reference value: 52.1 +/- 0.6 %)
[9] = tested on: NCI-H460; assay: Antitumor activity against human NCI-H460 cells xenografted in nude mouse assessed as induction of tumor cell death by measuring increase in cleaved caspase-9 expression at 5 mg/kg, ip administered daily by Western blot analysis; format: functional, organism-based
[10] = biological target: T1, Heat shock protein 75 kDa, mitochondrial (Homo sapiens); assay: Inhibition of TRAP1 in human PC3 cells assessed as increase in AMPK phosphorylation at 5 uM measured after 2 to 12 hrs by Western blot analysis; format: cell-based; conditions: PC-3
[11] = tested on: NCI-H460; assay: Antitumor activity against human NCI-H460 cells xenografted in nude mouse assessed as reduction in tumor cell proliferation at 5 mg/kg, ip administered daily by Ki67 staining based immunohistochemistry analysis; format: functional, organism-based
[12] = tested on: NCI-H460; assay: Antitumor activity against human NCI-H460 cells xenografted in nude mouse assessed as tumor growth inhibition at 5 mg/kg, ip administered daily; format: functional, organism-based
[13] = biological target: T1, Heat shock protein 75 kDa, mitochondrial (Homo sapiens); assay: Inhibition of TRAP1 in human PC3 cells assessed as reduction in SDHB expression at 5 uM measured after 2 to 12 hrs by Western blot analysis; format: cell-based; conditions: PC-3
[14] = tested on: NCI-H460; assay: Antitumor activity against human NCI-H460 cells xenografted in nude mouse assessed as induction of tumor cell death by measuring increase in cleaved caspase-3 expression at 5 mg/kg, ip administered daily by Western blot analysis; format: functional, organism-based
[15] = tested on: Mus musculus; assay: In vivo inhibition of TRAP1 in nude mouse xenografted with human NCI-H460 cells assessed as increase in CHOP expression at 5 mg/kg, ip administered daily by Western blot analysis; format: functional, organism-based
[16] = biological target: T1, Heat shock protein 75 kDa, mitochondrial (Homo sapiens); assay: Inhibition of TRAP1 in human PC3 cells assessed as reduction in SIRT3 expression at 5 uM measured after 2 to 12 hrs by Western blot analysis; format: cell-based; conditions: PC-3
[17] = biological target: T1, Heat shock protein 75 kDa, mitochondrial (Homo sapiens); assay: Inhibition of TRAP1 in human PC3 cells assessed as increase in CHOP expression at 5 uM measured after 2 to 12 hrs by Western blot analysis; format: cell-based; conditions: PC-3
[18] = biological target: T1, Heat shock protein 75 kDa, mitochondrial (Homo sapiens); assay: Inhibition of TRAP1 in human PC3 cells assessed as loss of mitochondrial membrane potential at 10 uM measured after 2 hrs by TMRM dye based flow cytometry; format: cell-based; conditions: PC-3
[19] = species on record: Homo sapiens; assay: Inhibition of recombinant full-length human TRAP1 W585/W4F mutant expressed in Escherichia coli BL21 (DE3) assessed as intrinsic fluorescence quenching of tryptophan residues at 10 uM measured after 1 hr by fluorescence spectrophotometric method
[20] = biological target: T1, Heat shock protein 75 kDa, mitochondrial (Homo sapiens); assay: Inhibition of TRAP1 in human PC3 cells assessed as increase in reactive oxygen species generation at 10 uM measured after 2 hrs by Mito-SOX probe based flow cytometry; format: cell-based; conditions: PC-3
[21] = tested on: Mus musculus; assay: In vivo inhibition of TRAP1 in nude mouse xenografted with human NCI-H460 cells assessed as increase in AMPK phosphorylation at 5 mg/kg, ip administered daily by Western blot analysis; format: functional, organism-based
[22] = tested on: Mus musculus; assay: In vivo inhibition of TRAP1 in nude mouse xenografted with human NCI-H460 cells assessed as increase in SIRT3 degradation at 5 mg/kg, ip administered daily by Western blot analysis; format: functional, organism-based
[23] = species on record: Homo sapiens; assay: Inhibition of recombinant full-length human TRAP1 W383/W4F mutant expressed in Escherichia coli BL21 (DE3) assessed as intrinsic fluorescence quenching of tryptophan residues at 10 uM measured after 1 hr by fluorescence spectrophotometric method
[24] = tested on: Mus musculus; assay: In vivo inhibition of TRAP1 in nude mouse xenografted with human NCI-H460 cells assessed as increase in SDHB degradation at 5 mg/kg, ip administered daily by Western blot analysis; format: functional, organism-based

`CO[C@H]1/C=C\C=C(/C)C(=O)NC2=CC(=O)C(NCCCCCC[P+](c3ccccc3)(c3ccccc3)c3ccccc3)=C(C[C@@H](C)C[C@H](OC)[C@H](O)[C@@H](C)/C=C(\C)[C@@H]1OC(N)=O)C2=O` was tested, and the Activity [1] was “Active”, the Activity [2] was “Active” and the Activity [3] was “Active”.

For `CC(C)NCCCn1c(Sc2cc3c(cc2I)OCO3)nc2c(N)ncnc21`, the inhibition [4] was “Active”, the Activity [1] was “Active” and the Activity [5] was “Active”. The Activity [2] was “Active”, the Activity [6] was 26.5% and the Activity [3] was “Active”. The inhibition [7] was “Active” and the Activity [8] was 28.3%.

`Nc1ncnc2c1nc(Sc1cc3c(cc1I)OCO3)n2CCCCCCCCCCCC[P+](c1ccccc1)(c1ccccc1)c1ccccc1` was tested, and the inhibition [4] was “Active”.

In the case of `Nc1ncnc2c1nc(Sc1cc3c(cc1I)OCO3)n2CCC[P+](c1ccccc1)(c1ccccc1)c1ccccc1`, the inhibition [4] is reported as “Active”.

For `Nc1ncnc2c1nc(Sc1cc3c(cc1I)OCO3)n2CCCCCC[P+](c1ccccc1)(c1ccccc1)c1ccccc1`, the Activity [9] was “inactive”, the inhibition [10] was “inactive” and the inhibition [4] was “Active”. The Activity [1] was “Active”, the Activity [11] was “inactive” and the TGI [12] was “inactive”. For the same compound, the inhibition [13] was “inactive”, the Activity [14] was “inactive” and the inhibition [15] was “inactive”. The inhibition [16] was “inactive”, the Activity [5] was “Active” and the inhibition [17] was “inactive”. The Activity [2] was “Active”, the inhibition [18] was “Active” and the inhibition [19] was “Active”. For the same compound, the inhibition [20] was “Active”, the Activity [6] was 41.3% and the Activity [3] was “Active”. For the same compound, the inhibition [7] was “Active”, the inhibition [21] was “inactive” and the inhibition [22] was “inactive”. The inhibition [23] was “Active”, the inhibition [24] was “inactive” and the Activity [8] was 28.2%.

With `Nc1ncnc2c1nc(Sc1cc3c(cc1I)OCO3)n2CCCCCCCC[P+](c1ccccc1)(c1ccccc1)c1ccccc1` the inhibition [4] was “Active”.

With `CC(C)c1cc(-c2n[nH]c(=O)n2-c2ccc3c(ccn3C)c2)c(O)cc1O` the Activity [1] was “Active”, the Activity [5] was “Active” and the Activity [2] was “Active”. The Activity [3] was “Active”.
